# Assay results published in patent US20040241653A1, “Methods for identifying marker genes for cancer” (priority 2001, published 2004).
# Columns and labels:
# PSA promoter = assay: PSA promoter/enhancer CAT reporter assay in transfected LNCaP cells; format: cell-based, human; conditions: LNCaP cells co-transfected with PSA-CAT reporter and wild type p53 plasmid; TSA 100 nM
# Method: (§1) FIG. 2: Opposite regulatory effect of p53 on PSA and p21 promoters. Chloramphenicol acetyltransferase (CAT)-reporter constructs were used to estimate p53 influence on PSA and p21 promoter elements. […]
# (§2) FIG. 3: Trichostatin A (TSA) treatment eliminates the effect p53 has on PSA promoter activity. […] TSA (100 nM) was added 5 h and CAT activity was measured 40 h post-transfection. […]
# (§3) Since it has previously been shown that negative regulation of transcription by p53 may involve p53-mediated recruitment of histone deacetylases (HDAC) (Murphy et al., Genes Dev., i3:2490-2501 1999), the inventors set out to determine whether this would be also true for the PSA promoter. […] At the same time, TSA had no effect on p53-mediated transactivation as determined in a similar experiment employing the p21 promoter-driven CAT reporter construct (FIG. 3). […]
# p21 promoter = assay: p21/Waf1 p53-responsive promoter CAT reporter assay in transfected LNCaP cells; format: cell-based, human; conditions: LNCaP cells co-transfected with p21-CAT reporter and wild type p53 plasmid; TSA 100 nM
# Method: as §1, §2, §3
compound,measurement,setting,value
"CC(/C=C/C(=O)NO)=C\[C@@H](C)C(=O)c1ccc(N(C)C)cc1 [TSA, Trichostatin A]",p53-mediated repression of PSA promoter driven transcriptional activity (CAT activity),PSA promoter,completely abrogated
same,p53-mediated transactivation of p21 promoter-driven CAT reporter,p21 promoter,no effect
